Article PMC11476419, “Analysis of Punicalin and Punicalagin Interaction with PDIA3 and PDIA1” (International Journal of Molecular Sciences, 2024)

Assays:
[1] = biological target: T1, PDIA3 (Homo sapiens, UniProt P30101); test: Intrinsic tryptophan fluorescence quenching; assay type: binding
T1 construct: The mature recombinant form (devoid of the N-terminal […]) of the human PDIA3 protein was expressed and purified; made in house
T1 sequence (P30101 25-505): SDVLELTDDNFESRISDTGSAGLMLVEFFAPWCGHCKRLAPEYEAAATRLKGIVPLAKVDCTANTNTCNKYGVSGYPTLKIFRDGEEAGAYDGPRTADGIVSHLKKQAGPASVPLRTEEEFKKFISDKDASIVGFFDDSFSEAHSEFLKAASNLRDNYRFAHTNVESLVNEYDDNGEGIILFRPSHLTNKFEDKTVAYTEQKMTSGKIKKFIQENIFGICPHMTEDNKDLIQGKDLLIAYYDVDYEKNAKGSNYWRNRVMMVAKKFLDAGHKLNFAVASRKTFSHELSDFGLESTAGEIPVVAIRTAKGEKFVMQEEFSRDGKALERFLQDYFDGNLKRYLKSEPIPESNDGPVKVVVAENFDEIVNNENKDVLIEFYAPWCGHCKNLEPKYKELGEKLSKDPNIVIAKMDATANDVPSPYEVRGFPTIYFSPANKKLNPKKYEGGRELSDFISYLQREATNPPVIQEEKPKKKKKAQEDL
Procedure: (§1) In a previous article, we evaluated the ability of punicalagin to interact with PDIA1 and PDIA3 [40]. In this study, the results previously obtained were compared with those obtained using punicalin. The protein–ligand interaction was evaluated by intrinsic quenching analysis due to the presence, in both proteins, of aromatic amino acids, among which tryptophan residues represent the main source. Quenching analysis was performed on PDIA1 and PDIA3, in the reduced form, by adding increasing concentrations of punicalin and recording the fluorescence spectra of both proteins. […] Quenching of intrinsic tryptophan fluorescence of both proteins was assessed using the Stern–Volmer equation, as previously reported. To further characterize the binding process, fluorescence data were analyzed using the equation described by Bi et al. and the reiterative calculation process described by Sun et al., providing an estimated value of the dissociation constant (Kd). The values of the Stern–Volmer constant (KSV) and the Kd obtained for punicalin are summarized in Table 1 and compared with those obtained for punicalagin [40]. The comparison of the results confirms that punicalin can bind both PDIs, although showing a slightly lesser affinity with respect to punicalagin.
(§2) The mature recombinant form (devoid of the N-terminal […]) of the human PDIA3 protein was expressed and purified according to the procedure previously described. […] In both cases, protein purification was evaluated by SDS-PAGE and Coomassie Blue staining, while the concentration was spectrophotometrically estimated using the extinction coefficient (PDIA3 in the reduced form, ε280 = 44,810 M^−1cm^−1; PDIA1 in the reduced form, ε280 = 45,567 M^−1cm^−1).
(§3) Protein–ligand interactions were evaluated by titration of intrinsic fluorescence quenching. Protein mission spectra were recorded by a SPEX-FluoroMax spectrofluorometer (Horiba Scientific, Piscataway, NJ, USA) from 300 to 400 nm, with an excitation wavelength set at 290 nm, emission slit set width, a 2 nm bandpass, and a scan speed set at 120 nm min^−1. […] The emission spectrum of the protein was recorded and the fluorescence intensities at 338 nm, obtained in at least three independent titration experiments, were used for quenching analyses, as previously described. Quenching of intrinsic tryptophan fluorescence at 338 nm was analyzed by the Stern–Volmer equation (Fo/F = 1 + KSV[L]), where F and Fo are the fluorescence intensity, respectively with or without ligand (L), and KSV is the Stern–Volmer constant value. Fluorescence data at 338 nm were also analyzed using the equation described by Bi et al. and the reiterative calculation process described by Sun et al., providing an estimated value of Kd.

[2] = biological target: T2, PDIA1 (Homo sapiens, UniProt P07237); test: Intrinsic tryptophan fluorescence quenching; assay type: binding
T2 construct: The mature human PDIA1 with an N-terminal His6x-tag was expressed and purified; His6 (N); made in house
T2 sequence (P07237 18-508): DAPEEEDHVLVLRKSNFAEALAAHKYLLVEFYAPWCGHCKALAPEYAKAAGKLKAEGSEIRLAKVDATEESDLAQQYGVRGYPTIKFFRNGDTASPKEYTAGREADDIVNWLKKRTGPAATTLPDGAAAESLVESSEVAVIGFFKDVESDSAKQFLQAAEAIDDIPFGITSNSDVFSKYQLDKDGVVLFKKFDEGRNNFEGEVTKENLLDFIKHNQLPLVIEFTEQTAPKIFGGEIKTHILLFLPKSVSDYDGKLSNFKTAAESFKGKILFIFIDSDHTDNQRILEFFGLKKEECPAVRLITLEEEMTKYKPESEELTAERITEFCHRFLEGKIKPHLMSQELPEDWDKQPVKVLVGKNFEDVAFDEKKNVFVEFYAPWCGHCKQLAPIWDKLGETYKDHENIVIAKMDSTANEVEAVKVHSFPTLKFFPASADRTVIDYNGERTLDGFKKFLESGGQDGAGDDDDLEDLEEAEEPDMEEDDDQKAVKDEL
Procedure: as §1, §2, §3

With `O=C1OC[C@H]2OC(O)[C@H](O)[C@@H](O)[C@@H]2OC(=O)c2cc(O)c(O)c(O)c2-c2c(O)c(O)c3oc(=O)c4c(c(O)c(O)c5oc(=O)c2c3c54)-c2c1cc(O)c(O)c2O` (mixture of isomers) [Punicalin, punicalin] the “Stern–Volmer constant (KSV)” value ([1]; reduced PDIA3 0.1 × 10^−6 M, pH 7.4, 25 °C, mean and SEM) was 73.7 ± 0.7 M^−1 × 10^3, the Kd ([1]; reduced PDIA3, pH 7.4, 25 °C, estimated from quenching data, read-out: dissociation constant (Kd)) was 14 µM and the “Stern–Volmer constant (KSV)” value ([2]; reduced PDIA1 0.1 × 10^−6 M, pH 7.4, 25 °C, mean and SEM) was 64.0 ± 0.4 M^−1 × 10^3. It also gave a Kd ([2]; reduced PDIA1, pH 7.4, 25 °C, estimated from quenching data, read-out: dissociation constant (Kd)) of 16 µM.
